Results: patent US20040097521A1, “Clinical treatment” (priority 2000, published 2004)

Tests used:
8-isoprostane = assay: AOM-induced rat colon cancer model, 8-isoprostane levels; format: in vivo; details: colonic tumors, versus control
Method: (§1) Since the efficacy of NAC against colon cancer is significant, the mechanisms of inhibiting colon carcinogenesis were explored by investigating the activities of protein kinase C (PKC), tyrosine protein kinase (TPK), and diacylglycerol kinase (DGK) as well as the 8-isoprostane levels in colonic mucosa and tumor tissues in an azoxy-methane (AOM)-induced rat colon cancer model.
(§2) At seven weeks of age corresponding groups of rats were injected s.c. with azoxymethane (AOM; 15 mg/kg body weight, once weekly for 2 weeks), and different experiments were continued until 38 weeks after the second AOM treatment. Then, the rats were then sacrificed and colonic mucosal as well as tumor samples were evaluated for PKC, TPK, DGK, and 8-isoprostane levels.

[1] = test system: primary normal human epidermal keratinocytes (NHEK); assay: Effects of NAC or di-NAC on primary normal human epidermal keratinocytes (NHEK) in culture; format: cell-based; details: for cell-cell junctions / concentration of E-cadherins / tubulin expression: 2 mM; for cell-cell junctions / concentration of E-cadherins / tubulin expression / concentration for complete suppression of cell proliferation: 3 days; for concentration for complete suppression of cell proliferation: 1 to 10 mM; for toxic side effects: summary
Text: Primary normal human epidermal keratinocytes (NHEK) obtained from Clonetics Inc. (San Diego, Calif., U.S.A.) were cultivated in the medium provided by the supplier. These cells have a limited life-span of about 15 days in culture and undergo a normal differentiation process of epidermal keratinocytes with a final enucleation and exfoliation. After inoculation the cells acquire a polygonal morphology cell-cell adhesions. The cytoskeleton morphology is quite organized, mainly at the cell borders.
NHEK cells were treated with various millimolar concentrations of NAC or di-NAC, ranging from 1 to 10 mM. The substances were added to the culture medium 24 hours after inoculation. After 3 days of culture in the presence of 2 mM of NAC or di-NAC the cells were analysed for the following marker parameters: […]

[2] = test system: tyrosine protein kinase (TPK); assay: AOM-induced rat colon cancer model, TPK activity; format: in vivo; details: colonic mucosal and tumor, P<0.01
Method: as §1, §2

[3] = test system: localized psoriatic plaques; assay: Local treatment of psoriatic plaques in volunteers with NAC or di-NAC cream; format: in vivo, human; details: base-cream 10-20 weight %; for outcome of prolonged treatment: weeks to a few months; for most commonly reported side effect: with occlusive bandage
Text: Five informed volunteers displaying localized psoriatic plaques were locally treated with a base-cream containing 10-20 weight % of NAC or di-NAC. The cream had been applied every night for variable periods—from weeks to a few months—with or without occlusive bandage. The skin of the patient was normally washed between each daily treatment. No other drugs were contemporarily used.

[4] = test system: 4NQO-induced rat malignant oral keratinocytes; assay: 4NQO-induced rat malignant oral keratinocytes transplanted orthotopically to athymic mice; format: in vivo; details: for potential to metastasise: differentiated rat malignant oral keratinocytes, versus untreated
Text: The effects of NAC or di-NAC on the metastatic capacity of clonal populations of 4NQO-induced rat malignant oral keratinocytes were examined after orthotopic transplantation to athymic mice. Polygonal cells and spindle cells formed well-differentiated squamous cell carcinomas (keratin positive and vimentin negative) and undifferentiated spindle cell tumors (keratin negative and vimentin positive), respectively, in all animals at the site of inoculation (floor of mouth).

[5] = test system: 1,2-dimethylhydrazine (DMH)-induced large intestinal tumors; assay: DMH-induced large intestinal tumors in rats; format: in vivo, male Sprague-Dawley rats
Text: The effects of daily NAC treatment or intermittent NAC treatments on intestinal tumors, which had been induced by treating male Sprague-Dawley rats with 1,2-dimethylhydrazine (DMH), were investigated.

protein kinase C (PKC) = assay: AOM-induced rat colon cancer model, PKC activity; format: in vivo; details: colonic mucosa and tumors, P<0.01
Method: as §1, §2

[6] = cited from earlier work
[7] = test system: diacylglycerol kinase (DGK); assay: AOM-induced rat colon cancer model, DGK activity; format: in vivo; details: P<0.01
Method: as §1, §2

[8] = test system: human colon carcinoma cells (CaCo2); assay: Effects of NAC and di-NAC on human colon carcinoma cells (CaCo2) in culture; format: cell-based; details: for local concentration for maximum inhibition of proliferation (no growth) / time to differentiate when treated: CaCo2; for toxic side effects: CaCo2, summary
Method: An established cell line of human colon carcinoma cells was used (CaCo2). CaCo2 is a proliferating human colon carcinoma cell line displaying irregular morphology, forming multiple cell layers with scarce microvillous structures and large intercellular spaces.
The CaCo2 cells were treated with various millimolar concentrations of NAC, ranging from 2 to 10 mM. NAC was added to the culture medium 24 hours after inoculation of the cells. After 3 days of culture in the presence of NAC the cells were analyzed for the following marker parameters: […]

[9] = test system: DHD/K12-PROb colon adenocarcinoma; assay: Colon adenocarcinoma (DHD/K12-PROb cells s.c.) in BD-IX rats; format: in vivo; details: weekly injection
Method: In this experimental model BD-IX rats were divided into four groups: Groups G1 and G2, designated “cancer groups”, were used to study the effects of NAC on the progression of colon cancer, and Groups G3 and G4, designated “toxicity groups”, were used to study the effects of the treatment on metabolic processes and the parenchyma. DHD/K12-PROb cells were injected subcutaneously into the chest of Group G1 and G2 animals. From 1 to 13 weeks after inoculation the animals in Groups G2 and G4 received a weekly injection of NAC. The animals in Groups G1 and G3 received no treatment.

myeloma type tumor cells = details: in vitro; cited from earlier work
arteriosclerosis = details: WHHL rabbits; cited from earlier work
[10] = test system: human colon carcinoma cells (CaCo2); assay: Effects of NAC and di-NAC on human colon carcinoma cells (CaCo2) in culture; format: cell-based; details: CaCo2, di-NAC treatment

CC(=O)N[C@@H](CS)C(=O)O [NAC, N-acetyl-L-cysteine]
8-isoprostane levels (8-isoprostane): lower levels
local concentration for maximum inhibition of proliferation (no growth) ([1]; NHEK): about 1 mM
time to differentiate when treated ([1]; NHEK): 3 days
cell-cell junctions ([1]; NHEK): increased number
concentration of E-cadherins ([1]; NHEK): increased
tubulin expression ([1]; NHEK): reduced
concentration for complete suppression of cell proliferation ([1]; NHEK): 2 mM
cell viability ([1]; NHEK, all doses, up to 10 mM): unaffected
toxic side effects ([1]; NHEK): no toxic side effects
apoptosis / necrosis ([1]; NHEK, up to 10 mM): Neither apoptosis nor necrosis was observed
concentration at which keratinocytes completely differentiate [1]: 1 mM
minimum dose required to accelerate differentiation of normal keratinocytes [1]: 0.5 mM
TPK activities [2]: significantly suppressed
outcome of prolonged treatment [3]: complete remission of all symptoms
most commonly reported side effect [3]: local hitching
potential to metastasise [4]: decreased potential to metastasise
inhibition of clones of polygonal cells ([4]; exogenous NAC): markedly inhibited
inhibition of spindle cells ([4]; exogenous NAC): inhibited
large intestinal tumor mass index ([5]; NAC-treated group, p<0.001 vs control): 0.04
adenocarcinomas in the colons ([5]; daily NAC treatment): no adenocarcinomas were present
large intestinal tumor burden ([5]; intermittent NAC treatment, p=0.001 vs control): 1 tumors/treatment group
Ca2+ dependent and independent PKC activities (protein kinase C (PKC)): significantly inhibited
side effects when used clinically ([6]; even after high doses, such as 10 g/day): no significant side effects
clearance ([6]; in vivo): relatively rapid
side effects after intravenous injection ([6]; paracetamol poisoning, 10 grams i.v. in 15 minutes, then half of the dose in 30 min): without any reported side effects
DGK activity [7]: significant increased
local concentration for maximum inhibition of proliferation (no growth) [8]: about 1 mM
time to differentiate when treated [8]: 3 days
apoptosis / necrosis ([8]; CaCo2, 2 to 10 mM, 3 days): Neither apoptosis nor necrosis was observed
concentration of maximum effect on decrease of cell proliferation ([8]; CaCo2, 2 to 10 mM, 3 days of culture): 2 mM
cell-cell adhesion structures ([8]; CaCo2, 3 days of culture): increased number
tubulin expression ([8]; CaCo2, 3 days of culture): strongly reduced
cell viability ([8]; CaCo2, all doses added (2 to 10 mM), 3 days): unaffected
toxic side effects [8]: without any detectable toxic side effects
concentration at which reversion of colon cancer cells is induced [8]: 1 mM
concentration at which colon carcinoma completely differentiate [8]: 5 mM
tumor growth ([9]; female and male rats): significantly slower
life span ([9]; 1 to 13 weeks after inoculation): extended life span
activity against myeloma type tumor cells (myeloma type tumor cells): tumor proliferation inhibitory activity

CC(=O)N[C@@H](CSSC[C@H](NC(C)=O)C(=O)O)C(=O)O [di-NAC, N,N′-diacetyl-L-cystine]
local concentration for maximum inhibition of proliferation (no growth) ([1]; NHEK): about 1 mM
time to differentiate when treated ([1]; NHEK): 3 days
cell-cell junctions ([1]; NHEK): increased number
concentration of E-cadherins ([1]; NHEK): increased
tubulin expression ([1]; NHEK): reduced
concentration for complete suppression of cell proliferation ([1]; NHEK): 2 mM
toxic side effects ([1]; NHEK): no toxic side effects
concentration at which keratinocytes completely differentiate [1]: 1 mM
minimum dose required to accelerate differentiation of normal keratinocytes [1]: 0.5 mM
outcome of prolonged treatment [3]: complete remission of all symptoms
most commonly reported side effect [3]: local hitching
potential to metastasise [4]: decreased potential to metastasise
effect on arteriosclerosis (arteriosclerosis): inhibits arteriosclerosis
local concentration for maximum inhibition of proliferation (no growth) [8]: about 1 mM
time to differentiate when treated [8]: 3 days
toxic side effects [8]: without any detectable toxic side effects
concentration at which reversion of colon cancer cells is induced [8]: 1 mM
concentration at which colon carcinoma completely differentiate [8]: 5 mM
E-cadherin expression [10]: increased
proliferation [10]: decreased proliferation
